Data taken from ChEMBL document CHEMBL5365529, “Construction and Evaluation of Novel Dual-function Antifungal Inhibitors and Covalent Organic Framework Carriers Based on the Infection Microenvironment” (J Med Chem, 2023).
In brackets after ≈: the same amount, converted by molar mass.

Experiments:
Assay type in all cases: functional
[1] = system: Cryptococcus neoformans; assay: Antifungal activity against Cryptococcus neoformans ZKCC 2209 assessed as fungal growth inhibition incubated for 72 hrs by CLSI based susceptibility test
[2] = system: Aspergillus fumigatus; assay: Antifungal activity against Aspergillus fumigatus KM8001 assessed as fungal growth inhibition incubated for 72 hrs by CLSI based susceptibility test
[3] = system: Candida albicans; assay: Antifungal activity against FLC-resistant Candida albicans CaR assessed as fungal growth inhibition incubated for 72 hrs by CLSI based susceptibility test
[4] = system: Candida tropicalis; assay: Antifungal activity against Candida tropicalis ATCC 1369 assessed as fungal growth inhibition incubated for 72 hrs by CLSI based susceptibility test
[5] = system: Candida albicans; assay: Antifungal activity against Candida albicans SC5314 assessed as fungal growth inhibition incubated for 72 hrs by CLSI based susceptibility test
[6] = system: Candida albicans; assay: Antifungal activity against FLC-resistant Candida albicans 904 assessed as fungal growth inhibition incubated for 72 hrs by CLSI based susceptibility test
[7] = system: Candida albicans; assay: Antifungal activity against FLC-resistant Candida albicans 17# assessed as fungal growth inhibition incubated for 72 hrs by CLSI based susceptibility test
[8] = system: Nakaseomyces glabratus; assay: Antifungal activity against Candida glabrata assessed as fungal growth inhibition incubated for 72 hrs by CLSI based susceptibility test
[9] = system: Candida albicans; assay: Antifungal activity against FLC-resistant Candida albicans 901 assessed as fungal growth inhibition incubated for 72 hrs by CLSI based susceptibility test
[10] = system: Candida albicans; assay: Antifungal activity against FLC-resistant Candida albicans 632 assessed as fungal growth inhibition incubated for 72 hrs by CLSI based susceptibility test

| SMILES | MIC50 [1] [µg/mL] | MIC50 [2] [µg/mL] | MIC50 [3] [µg/mL] | MIC50 [4] [µg/mL] | MIC50 [5] [µg/mL] | MIC50 [6] [µg/mL] | MIC50 [7] [µg/mL] | MIC50 [8] [µg/mL] | MIC50 [9] [µg/mL] | MIC50 [10] [µg/mL] |
| --- | --- | --- | --- | --- | --- | --- | --- | --- | --- | --- |
| OC(Cn1cncn1)(Cn1cncn1)c1ccc(F)cc1F [FLUCONAZOLE] | 1 (≈ 3.27 µM) | > 8 | ≥ 8 | 0.5 (≈ 1.63 µM) | 0.5 (≈ 1.63 µM) | ≥ 8 | ≥ 8 | 0.25 (≈ 0.816 µM) | ≥ 8 | ≥ 8 |
| Cc1c(COc2cccc(CN[C@H](Cn3cncn3)C(=O)OC(C)C)c2)cccc1-c1ccccc1 | 2 (≈ 4.13 µM) | 8 (≈ 16.5 µM) | – | 2 (≈ 4.13 µM) | 2 (≈ 4.13 µM) | – | – | 0.25 (≈ 0.516 µM) | – | – |
| CC(C)OC(=O)[C@@H](Cn1cncn1)NC(=O)C1CCCN(C(=O)c2cccc(-c3ccccc3)c2)C1 (stereo not given in full) | 2 (≈ 4.09 µM) | 4 (≈ 8.17 µM) | – | 1 (≈ 2.04 µM) | 0.5 (≈ 1.02 µM) | – | – | 1 (≈ 2.04 µM) | – | – |
| COC(=O)[C@@H](Cn1cncn1)NC(=O)C1CCCN(C(=O)c2cccc(-c3ccccc3)c2)C1 (stereo not given in full) | 1 (≈ 2.17 µM) | 8 (≈ 17.3 µM) | – | 1 (≈ 2.17 µM) | 0.5 (≈ 1.08 µM) | – | – | 0.5 (≈ 1.08 µM) | – | – |
| CCOC(=O)[C@@H](Cn1ccnc1)NCc1cccc(OCc2cccc(-c3ccccc3)c2C)c1 | 1 (≈ 2.13 µM) | 4 (≈ 8.52 µM) | – | 0.5 (≈ 1.06 µM) | 0.5 (≈ 1.06 µM) | – | – | 1 (≈ 2.13 µM) | – | – |
| CCOC(=O)[C@@H](Cn1cncn1)NC(=O)C1CCCN(Cc2cccc(-c3ccccc3)c2C)C1 (stereo not given in full) | 2 (≈ 4.21 µM) | > 8 | – | 0.5 (≈ 1.05 µM) | 0.25 (≈ 0.526 µM) | – | – | 0.5 (≈ 1.05 µM) | – | – |
| COC(=O)[C@@H](Cn1ccnc1)NC(=O)C1CCCN(Cc2cccc(-c3ccccc3)c2C)C1 (stereo not given in full) | 0.5 (≈ 1.09 µM) | 4 (≈ 8.68 µM) | – | 1 (≈ 2.17 µM) | 0.5 (≈ 1.09 µM) | – | – | 2 (≈ 4.34 µM) | – | – |
| COC(=O)[C@@H](Cn1ccnc1)NC(=O)C1CCCN(C(=O)c2cccc(-c3ccccc3)c2)C1 (stereo not given in full) | 4 (≈ 8.69 µM) | > 8 | – | 2 (≈ 4.34 µM) | 1 (≈ 2.17 µM) | – | – | 0.5 (≈ 1.09 µM) | – | – |
| CCOC(=O)[C@@H](Cn1ccnc1)NC(=O)C1CCCN(C(=O)c2cccc(-c3ccccc3)c2)C1 (stereo not given in full) | 1 (≈ 2.11 µM) | 4 (≈ 8.43 µM) | – | 0.5 (≈ 1.05 µM) | 0.5 (≈ 1.05 µM) | – | – | 1 (≈ 2.11 µM) | – | – |
| CCOC(=O)[C@@H](Cn1cncn1)NC(=O)C1CCCN(C(=O)c2cccc(-c3ccccc3)c2)C1 (stereo not given in full) | 2 (≈ 4.21 µM) | > 8 | – | 0.5 (≈ 1.05 µM) | 0.25 (≈ 0.526 µM) | – | – | 0.5 (≈ 1.05 µM) | – | – |
